B1: Serpin A3N: an irreversible serine protease inhibitor used as GzmB inhibitor (protein, UniProt Q91WP6 21-418, looked up)
Serine protease inhibitor A3N: FPDGTLGMDAAVQEDHDNGTQLDSLTLASINTDFAFSLYKELVLKNPDKNIVFSPLSISAALAVMSLGAKGNTLEEILEGLKFNLTETSEADIHQGFGHLLQRLNQPKDQVQISTGSALFIEKRQQILTEFQEKAKTLYQAEAFTADFQQPRQAKKLINDYVRKQTQGMIKELVSDLDKRTLMVLVNYIYFKAKWKVPFDPLDTFKSEFYAGKRRPVIVPMMSMEDLTTPYFRDEELSCTVVELKYTGNASALFILPDQGRMQQVEASLQPETLRKWKNSLKPRMIDELHLPKFSISTDYSLEDVLSKLGIREVFSTQADLSAITGTKDLRVSQVVHKAVLDVAETGTEAAAATGVKFVPMSAKLYPLTVYFNRPFLIMIFDTETEIAPFIAKIANPK

Columns and labels:
GzmB [1] = target: T1, GzmB (Homo sapiens, UniProt P10144); experiment: GzmB cleavage assay of collagen VII with GzmB inhibitors (Western Blot); assay type: biochemical; conditions: for inhibition of GzmB-mediated collagen VII cleavage: FIG. 3, collagen VII 500 ng, 200 mM of GzmB, 24 hours 37° C., GzmB incubated with inhibitor 1 hour before substrate
T1 construct: purchased EmeraldBio
T1 sequence (P10144 21-247): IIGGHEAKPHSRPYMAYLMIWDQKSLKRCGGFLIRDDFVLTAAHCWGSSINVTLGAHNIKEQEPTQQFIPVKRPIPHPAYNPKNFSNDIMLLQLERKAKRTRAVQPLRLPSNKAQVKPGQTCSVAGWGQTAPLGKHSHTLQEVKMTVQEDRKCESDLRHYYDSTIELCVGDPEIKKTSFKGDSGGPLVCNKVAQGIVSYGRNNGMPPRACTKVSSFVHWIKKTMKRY
Description: (§1) Addition of GzmB inhibitors (Serpin A3N, Compound 20, Compound A) prevented GzmB-mediated collagen VII cleavage. Bands indicating fragments are labeled. GzmB cleavage assay was performed in 40 μL of PBS. Briefly, collagen VII (500 ng) was incubated with […] of GzmB for 24 hours at 37° C. For inhibition, GzmB was incubated with Compound 20, Serpin A3N and Compound A for 1 hour at 37° C. prior to the addition of collagen VII. After 24 hours, all samples were loaded onto a 10% SDS-PAGE, blotted on a PVDF membrane and incubated with a primary antibody specific for collagen VII (rabbit anti-collagen VII, Abcam plc) overnight at 4° C., and then with a secondary labeled anti-rabbit antibody for 1 hour at room temperature.
(§2) For inhibition studies, prior to the addition of substrates to the reaction, GzmB was incubated in the presence of 100 μM Compound A for 1 hour at 37° C. After 24 hours incubation, proteins were denatured, separated on a 4%-20% SDS-PAGE gel (for α6/β4). […] For inhibition studies, prior to the addition of substrates to the reaction, GzmB was incubated in the presence of 100 μM Compound A for 1 hour at 37° C. After 24 hours incubation, nidogen-2 protein was denatured and separated on a 7.5% SDS-PAGE gel. Cleavage was detected by anti-nidogen-2 antibody (R&D Systems). […] For inhibition studies, prior to the addition of substrates to the reaction, GzmB was incubated in the presence of 100 μM Compound A for 1 hour at 37° C. After 24 hours incubation, collagen VII protein was denatured and separated on a 10% SDS-PAGE gel. Cleavage was detected by anti-collagen VII antibody (ABCAM, Toronto, ON).
as §1, with “A” for “Addition of GzmB inhibitors (Serpin A3N, Compound 20, Compound A) prevented GzmB-mediated collagen VII cleavage. Bands indicating fragments are labeled.”, “hours” for “hours,”, “on” for “on a”
(§3) The recombinant human integrin α6/β4 (α6 a.a. 24-878, β4 a.a. 28-710, R&D Systems, Minneapolis, Minn.), collagen VII (199-482 a.a., MyBiosource, San Diego, Calif.), collagen XVII (a.a. 490-1497, generous gift from Dr. Claus-Werner Franzke), and collagen I (Novus Biologicals, Littleton, Colo.) were incubated for 24 hours at 37° C. in 200 nM purified human GzmB (EmeraldBio, Bainbridge Island, Wash.). For inhibition studies, prior to the addition of substrates to the reaction, GzmB was incubated in the presence of 600 nm serpin A3N (generous gift from Dr. Chris R. Bleackley, University of Alberta, Edmonton, AB, Canada) or 100 NM of the small molecule inhibitor Compound 20 (courtesy of the Centre for Drug Research and Development, Vancouver, BC) for 1 hour at 37° C. After the 24 hours incubation, proteins were denatured, separated on a 4-20% (for integrin α6/β4), 10% (for collagen VII), 8-10% (for collagen XVII), or 7.5% (for collagen I) SDS-polyacrylamide gel. Cleavage was detected by Western Blot using anti-human integrin α6 sub-unit (ABCAM), anti-human integrin β4 sub-unit (R&D Systems, Minneapolis, Minn.), anti collagen VII (ABCAM), and anti-human collagen XVII (generous gift from Dr. Claus-Werner Franzke) and imaged using a Li-Cor Odissey® FC (Li-Cor, Lincoln, Nebr.). […]

GzmB [2] = target: T1, GzmB; experiment: GzmB cleavage assay of integrin α6/β4 (α6 and β4 sub-units) with GzmB inhibitors; assay type: biochemical
Description: as §2
as §3, with “After the 24 hours incubation, proteins were denatured, separated on a 4-20% (for integrin α6/β4), 10% (for collagen VII), 8-10% (for collagen XVII), or 7.5% (for collagen I) SDS-polyacrylamide gel.” left out

GzmB [3] = target: T1, GzmB; experiment: GzmB-mediated cleavage of nidogen-2 with inhibitor (Western Blot); assay type: biochemical; conditions: FIG. 22B; nidogen-2 residues 31-1375, 500 ng, 200 nM purified human GzmB, 100 μM Compound A
Description: as §2

[4] = system: diabetic mouse model, burn injury to induce blistering; experiment: Burn injury blistering in diabetic mouse model; assay type: in vivo; conditions: for blistering compared to saline-only treatment: FIG. 8B, 30-day study
Description: FIGS. 8A through 8C provide evidence Compound A, a GzmB inhibitor, prevents blistering. Mice were exposed to burn injury by heating a steal rod for 6 seconds to 100° C. to induce blistering. Two independent experiments were run: In FIG. 8A, Compound A was added daily for 30 days. […] In FIG. 8B, Compound A in PBS (3.6 mg/mL) was administered daily by subcutaneous injection and in a gel (3.6 mg/mL) administered daily by topical application.
In this example mice were exposed to burn injury by heating a steal rod for 6 seconds to 100° C. to induce blistering.
There were two separate experiments run. Experiment 1 was a 30-day 3-arm study. Arm 1 consisted of treating the mouse daily with Compound A (3.6 mg/mL) in PBS by subcutaneous injection. In arm 2, Compound A (3.6 mg/mL) was administered to the mouse by daily topical application in the gel. In arm 3, the mouse was administered daily by subcutaneous injection saline as a control.
Experiment 2 was a 25-day 2-arm study. Arm 1 consisted of administering daily, through topical application, Compound A (3.6 mg/mL) in the gel. Arm 2 consisted of administering daily the vehicle gel through topical application as a control.

GzmB [5] = target: T1, GzmB; experiment: GzmB-mediated cleavage of collagen XVII with inhibitors (Western Blot); assay type: biochemical; conditions: FIG. 16A, collagen XVII a.a. 490-1497, 200 nM GzmB, pre-incubation with Compound 20 or serpin A3N
Description: Black arrow indicates cleavage fragment and * indicates full-length protein. GzmB produces a cleavage band, and this cleavage is abolished by the addition of Com20 or S3AN. […] Dotted lines indicate separation between the epidermis and the dermis. Scale bars represent […].
as §3, with “After the 24 hours incubation, proteins were denatured, separated on a 4-20% (for integrin α6/β4), 10% (for collagen VII), 8-10% (for collagen XVII), or 7.5% (for collagen I) SDS-polyacrylamide gel.” left out

Molecule | inhibition of GzmB-mediated collagen VII cleavage (GzmB [1]) | inhibition of GzmB-mediated cleavage of collagen VII (GzmB [1]; FIG. 22C, collagen VII residues 199-482, 500 ng, 200 nM purified human GzmB, 100 μM Compound A pre-incubated 1 hour) | inhibition of GzmB-mediated cleavage of α6β4 integrin (GzmB [2]; FIG. 22A, Coomassie staining, 200 nM purified human GzmB, 100 μM Compound A pre-incubated 1 hour) | inhibition of GzmB-mediated cleavage of nidogen-2 (GzmB [3]) | blistering ([4]; FIG. 8A, mice, burn injury, Compound A daily for 30 days versus saline-treated skin) | blistering compared to saline-only treatment ([4]; Compound A in PBS 3.6 mg/mL, daily subcutaneous injection) | blistering compared to saline-only treatment ([4]; Compound A in gel 3.6 mg/mL, daily topical application) | blistering compared to gel alone ([4]; FIG. 8C, Compound A in gel 3.6 mg/mL, daily topical application, 25-day study) | inhibition of GzmB-mediated cleavage of collagen VII (GzmB [1]; FIG. 15A, collagen VII a.a. 199-482, 200 nM purified human GzmB, 24 hours, pre-incubation with 600 nm serpin A3N or 100 NM Compound 20) | inhibition of GzmB-mediated cleavage of collagen VII (GzmB [1]; FIG. 15A, collagen VII a.a. 199-482, 200 nM purified human GzmB, 24 hours, pre-incubation with 600 nm serpin A3N or 100 NM Compound 20, listed as S3AN) | inhibition of GzmB-mediated cleavage of the α6 integrin subunit (GzmB [2]; FIG. 13A, 200 nM GzmB, Western Blot, Compound 20 100 μM, serpin A3N 600 nM) | inhibition of GzmB-mediated cleavage of β4 integrin sub-unit (GzmB [2]; FIG. 14A, 200 nM GzmB, Western Blot, Compound 20 100 μM, serpin A3N 600 nM) | inhibition of GzmB-mediated cleavage of collagen XVII (NC16 ectodomain) (GzmB [5]) | inhibition of GzmB-mediated cleavage of collagen XVII (NC16 ectodomain) (GzmB [5]; listed as S3AN)
CC[C@H](C)[C@H](NC(=O)CCC(=O)O)C(=O)NCC(=O)N1C(=O)N(C2CCCCC2)C[C@H]1C(=O)NCc1nn[nH]n1 [Compound A, 4-(((2S,3S)-1-((2-((S)-5-(((2H-tetrazol-5-yl)methyl)carbamoyl)-3-cyclohexyl-2-oxoimidazolidin-1-yl)-2-oxoethyl)amino)-3-methyl-1-oxopentan-2-yl)amino)-4-oxobutanoic acid] | prevented | this cleavage is prevented | can prevent the cleavage | this cleavage was prevented | Blistering is prevented | reduce blistering | reduce blistering | reduced blistering | – | – | – | – | – | –
B1 | prevented | – | – | – | – | – | – | – | prevented the appearance of both ˜20 and 25 kDa bands | abolished | prevented the cleavage | prevented the cleavage | prevented NC16 cleavage | abolished
